Experimental data taken from article PMC9027532, “Preclinical Pharmacokinetic Studies of a Novel Diuretic Inhibiting Urea Transporters” (Molecules, 2022).

Assays:
rats = system: rats; design: method as in PMID 34601246; details: orally administered; cited from earlier work
UT-B = system: UT-B; design: method as in PMID 34601246; details: mice; read-out: inhibitory effect on UT-B; cited from earlier work
in vivo = details: male, Sprague-Dawley, rat, po
[1] = Plasma protein binding by equilibrium dialysis, rat plasma; assay type: in vitro ADME, SD rats
Procedure: The plasma protein binding (PPB) and blood plasma ratio (BPR) are crucial parameters influencing the drug distribution and elimination in plasma. The PPB profile of 25a was evaluated by equilibrium dialysis, a classic method to assess the interactions of small molecules with proteins. The PPB of 25a was tested at 50, 500, and 2500 ng/mL (Table 7). […] When considering the allometric scaling of PK parameters, the species difference of protein binding between humans and rats should be considered.
The plasma protein binding (PPB) ratio of 25a was assessed via equilibrium dialysis in SD rats and human plasma. Four hundred microliters of plasma containing 50, 500, or 2500 ng/mL 25a were loaded into the dialysis bags (plasma side), and the bags were placed into tubes containing 4 mL of the dialysis buffer (buffer side). The tubes were then rotated at approximately 100 rpm in a humidified incubator with 5% CO2 at 37 ± 1 °C for 5 h.
After the 5 h dialysis, aliquots of 50 μL samples were taken from both the buffer and the plasma sides. An equal volume of the opposite blank matrix (buffer or plasma) was added to each sample to reach a final volume of 100 μL with a volume ratio of plasma to dialysis buffer at 1:1 (v/v). All samples were further processed by adding 600 μL of stop solution (containing 10 ng/mL IS) to precipitate protein for LC–MS/MS analysis. The PPB ratio (%) was calculated by PPB% = 100% × (1 − Conc.buffer side/Conc.plasma side).

[2] = Blood plasma ratio, rat blood; assay type: in vitro ADME, SD rats; details: for Blood Plasma Ratio: rat
Procedure: (§1) The BPR of 25a in rats and humans was assessed. […] In addition, a significant species difference between rats and humans was observed (p < 0.05, Student’s t-test, n = 3).
(§2) The blood plasma ratio of 25a was investigated as previously reported. Briefly, fresh whole blood was collected into collection tubes containing K2–EDTA as an anticoagulant from SD rats and healthy volunteers. Blood spiked with 50, 500, and 2500 ng/mL 25a was incubated in the incubator with 5% CO2 at 37 ± 1 °C for 1 h. Some of the incubated samples were processed as blood samples; the remaining incubated samples were centrifuged to generate plasma samples. The concentration of 25a in samples was determined using the validated LC–MS/MS method.

SD rats = experiment: PK-PD study: urine output increment (diuresis) in rats; assay type: in vivo, Sprague-Dawley rats
mice = system: mice; design: method as in PMID 34601246; details: orally administered; cited from earlier work
[3] = Blood plasma ratio, human blood; assay type: in vitro ADME; details: for Blood Plasma Ratio: human
Procedure: as §1, §2

CC(=O)Nc1ccc(NC(=O)c2ccc(C(C)=O)o2)cc1 [Compound 25a, N-(4-acetamidophenyl)-5-acetylfuran-2-carboxamide]
Na+, K+, and Cl− levels in the blood (rats): without disturbing | duration of urea-selective diuresis (rats): […] | urine output vs vehicle control (rats): three times higher urine output than vehicle control | IC50 (UT-B): […] | MRT (in vivo): ~5.4 h | MRT (in vivo; 50 mg/kg): 5.4 ± 0.8 h | AUC(0-t) (in vivo; 100 mg/kg): 6920 ± 377 ng·h/mL | fraction unbound at 5 h, 50 ng/mL ([1]; SD, rat plasma, 50 ng/mL): 0.368 | fraction unbound at 5 h, 500 ng/mL ([1]; SD, rat plasma, 500 ng/mL): 0.386 | fraction unbound at 5 h, 2500 ng/mL ([1]; SD, rat plasma, 2500 ng/mL): 0.355 | fraction unbound at 5 h ([1]; Sprague-Dawley, rat plasma, 50, 500, 2500 ng/mL, read-out: mean plasma protein binding (PPB) (converted)): ~0.4 | Blood Plasma Ratio ([2]; 50 ng/mL): […] | Blood Plasma Ratio ([2]; 500 ng/mL): […] | Blood Plasma Ratio ([2]; 2500 ng/mL): […] | mean blood plasma ratio (BPR) ([2]; rats, 50, 500, 2500 ng/mL): […] | urine output increment per 12 h (diuresis) (SD rats; p.o. 25 mg/kg): 0.5 ± 0.2 mL | urine output increment per 12 h (diuresis) (SD rats; p.o. 50 mg/kg): 1.6 ± 0.8 mL | urine output increment per 12 h (diuresis) (SD rats; p.o. 100 mg/kg): 2.7 ± 0.9 mL | Na+, K+, and Cl− levels in the blood (mice): without disturbing | duration of urea-selective diuresis (mice): […] | urine output vs vehicle control (mice): three times higher urine output than vehicle control | Blood Plasma Ratio ([3]; 50 ng/mL): […] | Blood Plasma Ratio ([3]; 500 ng/mL): […] | Blood Plasma Ratio ([3]; 2500 ng/mL): […] | mean blood plasma ratio (BPR) ([3]; humans, 50, 500, 2500 ng/mL): […]
